Experiment [1] concerns the target T1, human GPR119 (Homo sapiens, UniProt Q8TDV5).
T1 construct: host or cells: HEK293-CRE-beta-lactamase
T1 sequence (Q8TDV5 1-335): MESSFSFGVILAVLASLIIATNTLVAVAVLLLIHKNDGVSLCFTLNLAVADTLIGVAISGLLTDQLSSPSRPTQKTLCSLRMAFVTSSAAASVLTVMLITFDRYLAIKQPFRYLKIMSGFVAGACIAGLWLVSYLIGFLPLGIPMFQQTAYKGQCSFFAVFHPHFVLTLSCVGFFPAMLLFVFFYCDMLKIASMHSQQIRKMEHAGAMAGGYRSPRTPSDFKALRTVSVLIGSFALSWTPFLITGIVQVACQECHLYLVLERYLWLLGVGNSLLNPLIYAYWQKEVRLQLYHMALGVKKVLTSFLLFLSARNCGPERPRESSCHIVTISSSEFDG
Description: GPR119 radioligand binding assay ([3H]-Compound A or [3H]-Compound B, HEK 293FT membranes). The conditions noted are these: Ki from IC50 by Cheng-Prusoff, one value per run. Here is the method: Cells were harvested via centrifugation (3,000×g, 10 minutes), washed once on DPBS (minus Ca++/Mg++), resuspended in 0.25M sucrose, 25 mM HEPES, 0.5 mM EDTA, pH 7.4 and frozen at −80 degrees Celsius.
The frozen cells were thawed on ice and centrifuged at 700×g (1400 rpm) for 10 minutes at 4 degrees Celsius. The cell pellet was resuspended in 20 mL phosphate-buffered saline, and centrifuged at 1400 rpm for 10 minutes. […] Cells were then lysed with 15 gentle strokes of a tight-fitting glass Dounce homogenizer. The homogenate was centrifuged at 1000×g (2200 rpm) for 10 minutes at 4 degrees Celsius. The supernatant was transferred into fresh centrifuge tubes on ice. The cell pellet was resuspended in homogenization buffer, and centrifuged again at 1000×g (2200 rpm) for 10 minutes at 4 degrees Celsius after which the supernatant was removed and the pellet resuspended in homogenization buffer. […] The solution was then centrifuged at 25,000×g (15000 rpm) for 20 minutes at 4 degrees Celsius, the supernatant was discarded, and the pellet was resuspended in fresh homogenization buffer (minus Benzonase and MgCl2). After repeating the 25,000×g centrifugation step, the final membrane pellet was resuspended in homogenization buffer and frozen at −80 degrees Celsius.
2 microL of each dilution was added to appropriate wells of a 96-well plate (each concentration in triplicate).
Membranes expressing GPR119 were thawed and diluted to a final concentration of 20 μg/100 microL per well in Binding Buffer, and 100 microL of diluted membranes were added to each well of 96-well plate.
The plate was incubated for 60 minutes w/shaking at room temperature (approximately 25 degrees Celsius). […] Filters were then washed six times using washing buffer (50 mM Tris-HCl, pH 7.5 kept at 4 degrees Celsius). The filter plates were then air-dyed at room temperature overnight.
IC50 determinations were made from competition curves, analyzed with a proprietary curve fitting program (SIGHTS) and a 4-parameter logistic dose response equation. Ki values were calculated from IC50 values, using the Cheng-Prusoff equation.

Experiment [2] addresses T1, human GPR119. Description: cAMP HTRF functional assay (hGPR119 HEK-CRE beta-lactamase cells). Type of experiment: cell-based. As to conditions: for Emax: read-out: Intrinsic Activity* (cAMP). Here is the method:
GPR119 agonist activity was also determined with a cell-based assay utilizing an HTRF (Homogeneous Time-Resolved Fluorescence) cAMP detection kit (cAMP dynamic 2 Assay Kit; Cis Bio cat #62AM4PEC) that measures cAMP levels in the cell. The method is a competitive immunoassay between native cAMP produced by the cells and the cAMP labeled with the dye d2. The tracer binding is visualized by a Mab anti-cAMP labeled with Cryptate. The specific signal (i.e. energy transfer) is inversely proportional to the concentration of cAMP in either standard or sample.
Following 30 minutes incubation at room temperature, 5 microL of labeled d2 cAMP and 5 microL of anti-cAMP antibody (both diluted 1:20 in cell lysis buffer; as described in the manufacturers assay protocol) were added to each well of the assay plate. […] Raw data were converted to nM cAMP by interpolation from a cAMP standard curve (as described in the manufacturer's assay protocol) and EC50 determinations were made from an agonist-response curves analyzed with a curve fitting program using a 4-parameter logistic dose response equation.
(Time-resolved FRET reads energy transfer from a long-lived donor to a nearby acceptor.)

Experiment [3] deals with T1, human GPR119. Description: beta-lactamase reporter functional assay (hGPR119 HEK293-CRE beta-lactamase cells). Type of experiment: cell-based. The conditions noted are these: one value per run; for EC50: hGPR119 HEK293-CRE beta-lactamase cells, read-out: Human B-lactamase Functional EC50; for Intrinsic Activity* (B-lactamase) / Emax: percent of maximal activity relative to standard GPR119 agonist (WO2005121121) at 10 microM; for Emax: read-out: Intrinsic Activity* (B-lactamase). As for the experimental part: The assay for GPR119 agonists utilizes a cell-based (hGPR119 HEK293-CRE beta-lactamase) reporter construct where agonist activation of human GPR119 is coupled to beta-lactamase production via a cyclic AMP response element (CRE). GPR119 activity is then measured utilizing a FRET-enabled beta-lactamase substrate, CCF4-AM (Live Blazer FRET-B/G Loading kit, Invitrogen cat #K1027). […] After 4 hours the plating medium was removed and replaced with 40 microL of assay medium (Assay medium is plating medium without potassium clavulanate and HIFBS). Varying concentrations of each compound to be tested was then added in a volume of 10 microL (final DMSO≦0.5%) and the cells were incubated for 16 hours at 37 degrees Celsius in a humidified environment containing 5% carbon dioxide. Plates were removed from the incubator and allowed to equilibrate to room temperature for approximately 15 minutes. 10 microL of 6×CCF4/AM working dye solution (prepared according to instructions in the Live Blazer FRET-B/G Loading kit, Invitrogen cat #K1027) was added per well and incubated at room temperature for 2 hours in the dark. Fluorescence was measured on an EnVision fluorimetric plate reader, excitation 405 nm, emission 460 nm/535 nm. EC50 determinations were made from agonist-response curves analyzed with a curve fitting program using a 4-parameter logistic dose-response equation.

Where [4] appears, read: hGPR119 HEK-CRE beta-lactamase cells, HTRF cAMP, one value per run.
Where [5] appears, read: percent of maximal activity relative to standard GPR119 agonist (WO2005121121) at 10 μM, one value per run.
Where [6] appears, read: **curve was extrapolated to 100% to calculate an EC50.

“And” between values parts separate entries of the source, which are not always exact repeats. Equal entries are not always repeated. Where two headings read alike, the source gives them in different places. Bounds are passed on as bounds.

One may read the Ki as a dissociation constant, usually derived from enzyme kinetics or from competition with a known ligand. One may read the EC50 as the midpoint of the concentration-response curve.

For `CC(C)OC(=O)N1CCC(n2ncc(COc3ccc(S(=O)(=O)CCO)cc3F)c2C#N)CC1` [Example 1, Isopropyl 4-[5-cyano-4-({2-fluoro-4-[(2-hydroxyethyl)sulfonyl]-phenoxy}methyl)-1H-pyrazol-1-yl]piperidine-1-carboxylate], the inhibition constant (Ki) on human GPR119 [1] (read-out: Human Binding Ki) was 0.047 µM and 0.045 µM. The half-maximal effective concentration (EC50) on human GPR119 [2] (setting [4]) was 0.217 µM and 0.18 µM. Also, on human GPR119 [2] (setting [5]), the “Intrinsic Activity* (cAMP)” value came out at 37% and the Emax came to 56%. Further, at human GPR119 [3], the half-maximal effective concentration (EC50) was 0.068 µM and 0.122 µM; the “Intrinsic Activity* (B-lactamase)” value came to 101%; the Emax was found to be 100%.

With `CC(C)OC(=O)N1CCC(n2ncc(COc3ccc(S(C)(=O)=O)cc3F)c2C#N)CC1` [Example 2, Isopropyl 4-(5-cyano-4-{[2-fluoro-4-(methylsulfonyl)phenoxy]methyl}-1H-pyrazol-1-yl)piperidine-1-carboxylate], on human GPR119 [1] (read-out: Human Binding Ki), the Ki was 0.01 µM and 0.019 µM and 0.013 µM and 0.04 µM. Moreover, the concentration giving a half-maximal response (EC50) at human GPR119 [2] (setting [4]) was 0.029 µM and 0.027 µM. Also, on human GPR119 [2] (setting [5]), the “Intrinsic Activity* (cAMP)” value is reported as 63% and the Emax is 60%. For the same molecule, on human GPR119 [3], the half-maximal effective concentration (EC50) was 0.009 µM and 0.017 µM; the “Intrinsic Activity* (B-lactamase)” value is 93% and 84%; the Emax is 100%.

`CC(C)OC(=O)N1CCC(n2ncc(COc3ccc(-n4cnnn4)cc3)c2C#N)CC1` [Example 4, Isopropyl 4-(5-cyano-4-{[4-(1H-tetrazol-1-yl)phenoxy]methyl}-1H-pyrazol-1-yl)piperidine-1-carboxylate]: the Ki on human GPR119 [1] (read-out: Human Binding Ki) amounted to 0.005 µM. The EC50 on human GPR119 [2] (setting [4]) was 0.01 µM and 0.009 µM. On human GPR119 [2] (setting [5]), the “Intrinsic Activity* (cAMP)” value was found to be 60% and the Emax stood at 80%. On human GPR119 [3], the EC50 is 0.015 µM and 0.016 µM; the “Intrinsic Activity* (B-lactamase)” value is 95%; the Emax came to 97%.

Turning to `Cc1ncccc1OCc1cnn(C2CCN(C(=O)OC(C)C)CC2)c1C#N` [Example 5, Isopropyl 4-(5-cyano-4-{[(2-methylpyridin-3-yl)oxy]methyl}-1H-pyrazol-1-yl)piperidine-1-carboxylate], the inhibition constant Ki on human GPR119 [1] (read-out: Human Binding Ki) is 0.939 µM and 1.71 µM. Also, at human GPR119 [2] (setting [4]), the EC50 is 0.442 µM and 0.65 µM. On human GPR119 [2] (setting [5]), the “Intrinsic Activity* (cAMP)” value is reported as 34% and the Emax came to 39%. In addition, on human GPR119 [3], the EC50 is 0.25 µM and 0.227 µM and 0.395 µM; the “Intrinsic Activity* (B-lactamase)” value is 88% and 104%; the Emax was 100%.

Take `Cc1ncccc1NCc1cnn(C2CCN(C(=O)OC(C)C)CC2)c1C#N` [Example 6, Isopropyl 4-(5-cyano-4-{[(2-methylpyridin-3-yl)amino]methyl}-1H-pyrazol-1-yl)piperidine-1-carboxylate]: on human GPR119 [1] (read-out: Human Binding Ki), the Ki is > 6.1 µM. Besides, the figures for the EC50 at human GPR119 [2] (setting [4]) and on human GPR119 [3] were > 10 µM and 0.006 µM, respectively. The Emax at human GPR119 [2] (setting [5]) worked out at 17%; at human GPR119 [3], 31%.

As to `COP(=O)(OC)c1ccc(OCc2cnn(C3CCN(C(=O)OC(C)C)CC3)c2C#N)c(F)c1` [Example 7, Isopropyl 4-(5-cyano-4-{[4-(dimethoxyphosphoryl)-2-fluorophenoxy]methyl}-1H-pyrazol-1-yl)piperidine-1-carboxylate], at human GPR119 [1] (Human Binding Ki), the Ki was 0.293 µM and 0.283 µM. For the same molecule, the EC50 on human GPR119 [2] (setting [4]) was 0.225 µM and 0.256 µM and 0.169 µM. On human GPR119 [2] (setting [5]), the “Intrinsic Activity* (cAMP)” value was 74% and 85%; the Emax amounted to 80%. At human GPR119 [3], the half-maximal effective concentration (EC50) was 0.622 µM and the Emax was 98%.

Regarding `CC(C)OC(=O)N1CCC(n2ncc(CCc3ccc(S(C)(=O)=O)cc3F)c2C#N)CC1` [Example 9, Isopropyl 4-(5-cyano-4-{2-[2-fluoro-4-(methylsulfonyl)phenyl]ethyl}-1H-pyrazol-1-yl)piperidine-1-carboxylate], the Ki at human GPR119 [1] (read-out: Human Binding Ki) is 0.035 µM and 0.042 µM. At human GPR119 [3], the EC50 was 0.056 µM and 0.089 µM; the “Intrinsic Activity* (B-lactamase)” value is listed as 93%; the Emax was 98%.

Regarding `CC(C)OC(=O)N1CCC(n2ncc(COc3ccc(-n4cccn4)cc3)c2C#N)CC1` [Example 18, Isopropyl 4-(4-((4-(1H-pyrazol-1-yl)phenoxy)methyl)-5-cyano-1H-pyrazol-1-yl)piperidine-1-carboxylate], the Ki at human GPR119 [1] (read-out: Human Binding Ki) came to 0.153 µM. Moreover, the EC50 at human GPR119 [2] (setting [4]) is 0.067 µM and 0.069 µM. For the same molecule, at human GPR119 [2] (setting [5]), the “Intrinsic Activity* (cAMP)” value is on record as 75% and the Emax worked out at 80%.

In the case of `CC(C)OC(=O)N1CCC(n2ncc(COc3ccc(-c4nnn(CCO)n4)cc3F)c2C#N)CC1` [Example 22, Isopropyl 4-(5-cyano-4-((2-fluoro-4-(2-(2-hydroxyethyl)-2H-tetrazol-5-yl)phenoxy)methyl)-1H-pyrazol-1-yl)piperidine-1-carboxylate], the Ki on human GPR119 [1] (read-out: Human Binding Ki) came to 0.159 µM. Also, the EC50 on human GPR119 [2] (setting [4]) was 0.147 µM and 0.161 µM. Further, at human GPR119 [2] (setting [5]), the Emax worked out at 29%.

Turning to `CC(C)OC(=O)N1CCC(n2ncc(COc3ccc(-c4nnnn4CCO)cc3F)c2C#N)CC1` [Example 23, Isopropyl 4-(5-cyano-4-((2-fluoro-4-(1-(2-hydroxyethyl)-1H-tetrazol-5-yl)phenoxy)methyl)-1H-pyrazol-1-yl)piperidine-1-carboxylate], at human GPR119 [1] (read-out: Human Binding Ki), the Ki was determined as 0.15 µM. Besides, at human GPR119 [2] (setting [6]), the EC50 was 1.64 µM and 1.47 µM; the Emax is 100%.

`Cn1nnnc1-c1ccc(OCc2cnn(C3CCN(C(=O)OC4(C)CC4)CC3)c2C#N)cc1` [Example 25, 1-Methylcyclopropyl 4-(5-cyano-4-{[4-(1-methyl-1H-tetrazol-5-yl)phenoxy]methyl}-1H-pyrazol-1-yl)piperidine-1-carboxylate]: the Ki on human GPR119 [1] (read-out: Human Binding Ki) was 0.418 µM. The EC50 at human GPR119 [2] (setting [4]) was 0.057 µM and 0.111 µM. Also, on human GPR119 [2] (setting [5]), the “Intrinsic Activity* (cAMP)” value is 88% and 114%.

`CC1(OC(=O)N2CCC(n3ncc(COc4ccc(C(N)=O)c(F)c4)c3C#N)CC2)CC1` [Example 26, 1-Methylcyclopropyl 4-(4-((4-carbamoyl-3-fluorophenoxy)methyl)-5-cyano-1H-pyrazol-1-yl)piperidine-1-carboxylate] displayed an EC50 on human GPR119 [2] (setting [4]) of 0.254 µM. Moreover, the Emax at human GPR119 [2] (setting [5]) worked out at 62%.
